Our source for the IC50 values is patent publication US20230257377A1, “2-AMINOQUINAZOLINONE DERIVATIVES AS METHIONINE ADENOSYLTRANSFERASE 2A INHIBITORS” (IDEAYA BIOSCIENCES, INC., priority 2020, published 2023).

Molecules are shown by their SMILES.

T1 sequence (P31153 whole entry, the tested form may be a part): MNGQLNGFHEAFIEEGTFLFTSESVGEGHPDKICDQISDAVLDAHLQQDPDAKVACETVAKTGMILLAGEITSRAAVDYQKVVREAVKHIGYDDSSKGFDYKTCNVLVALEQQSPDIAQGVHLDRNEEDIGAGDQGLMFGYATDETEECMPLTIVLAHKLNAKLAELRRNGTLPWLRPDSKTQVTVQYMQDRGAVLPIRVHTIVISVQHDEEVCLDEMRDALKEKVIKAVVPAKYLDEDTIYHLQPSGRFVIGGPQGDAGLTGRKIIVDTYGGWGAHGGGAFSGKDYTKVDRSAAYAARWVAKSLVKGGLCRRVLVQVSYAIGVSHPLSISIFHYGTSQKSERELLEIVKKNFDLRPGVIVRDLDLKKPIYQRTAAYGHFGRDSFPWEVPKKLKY

One test addresses T1, Human MAT2A (Homo sapiens, UniProt P31153).
T1 construct: Human MAT2A: Cepter, amino acids 1-395 Clone ID 334, lot 00023-148; purchased Cepter clone ID 334, lot 00023-148
Description: Phosphate Sensor Fluorescence Assay (Biologic Example B). It is filed as biochemical. Particulars: MAT2A inhibition, procedure of Biological Example B; 5.8 nM MAT2A, 500 uM L-methionine, 500 uM ATP, 0.01% BGG. As for the experimental part:
(§1) The ability of the compound of present disclosure to inhibit MAT2A enzyme was determined using a Phosphate Sensor Fluorescence Assay described below.
(§2) MAT2A enzyme is incubated with a test compound in DMSO or DMSO and its substrates (L-methionine and ATP) in a microtiter plate. The enzymatic reaction is stopped by the addition of Working Phosphate Sensor Mixture. The plate is analyzed for fluorescence at 450 nm. The high control (DMSO with enzyme and its substrates) gives high fluorescence which represents no inhibition of enzymatic activity while the low control (DMSO with MAT2A substrates and no enzyme) gives low fluorescence which represents full inhibition of enzymatic activity.
MAT2A: 5.8 nM MAT2A (1-395), Cepter, clone ID 334, lot 00023-148 before the addition of Working Phosphate Sensor Mixture
(§3) L-methionine: 500 uM before the addition of Working Phosphate Sensor Mixture
(§4) ATP: 500 uM before the addition of Working Phosphate Sensor Mixture
(§5) For the assay, a mixture of 1 mM L-methionine/1 mM ATP (2X final pre-stopped concentration) in assay buffer; MAT2A (2X final pre-stopped concentration) in Assay Buffer and Working Phosphate Sensor Mixture (1.5 uM Phosphate Sensor/30 mM EDTA in Assay Buffer, which is 3X final concentrations) were prepared. Test compounds or DMSO were added to the appropriate well using a Beckman Coulter Echo 550 acoustic liquid handler. 10 μL/well of Assay Buffer was added to the wells corresponding to the negative control and 10 μL/well of MAT2A was added to all the wells except for those corresponding to the negative control. After incubating the plate at room temperature for 15 minutes, 10 μL/well of the 1 mM L-methionine/1 mM ATP mixture was added to all wells. The plate was centrifuged at 1000 rpm for 1 minute and then incubated at room temperature for 1 hour. 10 μL of the Working Phosphate Sensor Mixture was added to all wells and the plate was centrifuged at 1000 rpm for 1 minute. The plate was read for fluorescence at 450 nm after exciting at 430 nm on a Tecan Spark microplate reader.
(§6) Percent inhibition was calculated in Chemical and Biological Information System (CBIS), (ChemInnovation Software Inc.). Curves were fitted by CBIS as % inhibition vs. log [compound concentration] using a 4-parameter inhibition model.
(§7) Fit=(A+((B−A)/(1+((C/x)^D))))
One may read the IC50 as the midpoint of a concentration-inhibition curve. Higher therefore signals lower potency. `Cn1nccc1-c1c(=O)nc(N)n2ccc(C(F)(F)F)cc12` [Compound 1.006, 1-Amino-4-(1-methyl-TH-pyrazol-5-yl)-6-(trifluoromethyl)-3H-pyrido[1,2-c]pyrimidin-3-one]: the IC50 lay within 10 to 200 nM.

Compound `Nc1nc(=O)c(-c2ccccc2)c2cc(Br)ccn12` [Compound 1.007, 1-Amino-6-bromo-4-phenyl-3H-pyrido[1,2-c]pyrimidin-3-one] gave an IC50 of 10 to 200 nM. Same read-out and setting: next, `Nc1nc(=O)c(-c2cccnc2)c2cc(C(F)(F)F)ccn12` [Compound 1.005, 1-Amino-4-(pyridin-3-yl)-6-(trifluoromethyl)-3H-pyrido[1,2-c]pyrimidin-3-one]: 10 to 200 nM; `CC(=O)Nc1nc(=O)c(-c2ccccc2)c2cc(C(F)(F)F)ccn12` [Compound 1.009, N-(3-oxo-4-phenyl-6-(trifluoromethyl)-3H-pyrido[1,2-c]pyrimidin-1-yl)acetamide]: 1000 to 10000 nM; `CCCNc1nc(=O)c(-c2ccccc2)c2cc(C(F)(F)F)ccn12` [Compound 1.010, 4-Phenyl-1-(propylamino)-6-(trifluoromethyl)-3H-pyrido[1,2-c]pyrimidin-3-one]: 10 to 200 nM.

Turning to `CNc1nc(=O)c(-c2ccccc2)c2cc(C(F)(F)F)ccn12` [Compound 1.011, 1-(Methylamino)-4-phenyl-6-(trifluoromethyl)-3H-pyrido[1,2-c]pyrimidin-3-one], the IC50 fell in the range of 10 to 200 nM. On the same count and under the same terms, next, `Cc1ccccc1-c1c(=O)nc(N)n2ccc(Br)cc12` [Compound 1.008, 1-Amino-6-bromo-4-(o-tolyl)-3H-pyrido[1,2-c]pyrimidin-3-one]: 10 to 200 nM.

A further test concerns the target T1, Human MAT2A. Description: Phosphate Sensor Fluorescence Assay (Biologic Example A). The note with it: MAT2A inhibition, procedure of Biological Example A; 500 uM L-methionine, 500 uM ATP, 0.1% BGG. The class given is biochemical. As for the experimental part:
as §1, §2
Human MAT2A: Cepter, amino acids 1-395
Assay Buffer: 50 mM Tris, pH 7.5/50 mM KCl/10 mM MgCl2/0.01% Brij-35/1 mM DTT/0.1% BGG/40 nM PNP/6 uM 7-MEG
MAT2A: 10 nM for Cepter clone ID 329, lot 00023-123 before the addition of Working Phosphate Sensor Mixture • 5 nM for Cepter clone ID 334, lot 00023-148 before the addition of Working Phosphate Sensor Mixture
as §3, §4
as §5, with “(2×” for “(2X”, “3×” for “3X”, “suing D300e digital dispenser. 5 μl/well” for “using a Beckman Coulter Echo 550 acoustic liquid handler. 10 μL/well”, “5 μl/well” for “10 μL/well”, “5 μl” for “10 μL”, “nm.” for “nm on a Tecan Spark microplate reader.”
as §6, §7
`COc1cc(C(F)(F)F)cc2c(-c3ccccc3C)c(=O)nc(N)n12` [Compound 1.004, 1-amino-8-methoxy-4-(o-tolyl)-6-(trifluoromethyl)-3H-pyrido[1,2-c]pyrimidin-3-one] had an IC50 of 200 to 500 nM.

As to `Nc1nc(=O)c(-c2ccccc2)c2cc(C(F)(F)F)ccn12` [Compound 1.001, 1-amino-4-phenyl-6-(trifluoromethyl)-3H-pyrido[1,2-c]pyrimidin-3-one], the IC50 lay within 10 to 200 nM. `Cc1ccccc1-c1c(=O)nc(N)n2ccc(C(F)(F)F)cc12` [Compound 1.002, 1-amino-4-(o-tolyl)-6-(trifluoromethyl)-3H-pyrido[1,2-c]pyrimidin-3-one] displayed an IC50 of 10 to 200 nM.

The compound `Nc1nc(=O)c(-c2ccccc2Cl)c2cc(C(F)(F)F)ccn12` [Compound 1.003, 1-amino-4-(2-chlorophenyl)-6-(trifluoromethyl)-3H-pyrido[1,2-c]pyrimidin-3-one] came in with an IC50 of 10 to 200 nM.
